# Details: buffer; pH 7.4; 6.0 h; 150.0 µM
row,solubility kinetic [µg/mL],Structure (SMILES)
1,< 1,CCCOC(=O)c1ccc(Oc2c(-c3ccc(O)cc3O)n[nH]c2C)cc1
2,11.4,C[S+](=O)([O-])c1ccc(-c2nc(C(=O)NCc3cccnc3)n3ccccc23)cc1
3,< 1,COc1ccc(-c2cc(C(F)(F)F)nc(SCCC(=O)Nc3cc(C)ccc3O)n2)cc1
4,> 54,O=C(c1ccccc1)N1CCC(c2nn(-c3ccc(F)cc3)c(=O)[nH]2)CC1
5,7.21,Cc1ccc(C(=O)Nc2nc(-c3ccccn3)cs2)cc1S(=O)(=O)N1CCOCC1
6,1.91,O=C1Nc2ccccc2/C1=C/c1ccc[nH]1
7,4.04,COc1ccc(-n2nc3c(N4CCCC(C(=O)NCCc5ccc(C)cc5)C4)nnc(C)c3c2C)cc1 (stereo not drawn)
8,27.3,CNCc1ccc(-c2cc(-c3nc(-c4ccc(S(=O)(=O)C(C)C)cc4)cnc3N)on2)cc1
9,< 1,O=C(Nc1nc(-c2ccccc2)cs1)c1ccncc1NS(=O)(=O)c1cccs1
10,< 1,O=C(Nc1ccc(Cl)cc1)Nc1ccc(Cl)c(Cl)c1
11,1.69,COc1ccc(C2Nc3ccccc3C(=O)N2Cc2cccnc2)cc1COc1c(C)cc(NC(C)=O)cc1C (stereo not drawn)
12,> 54,CCN(c1ccccc1)S(=O)(=O)c1c(C)nc2scc(C)n2c1=O
13,9.42,Cc1ccc(S(=O)(=O)Nc2cnccc2C(=O)Nc2nc(-c3ccccc3)cs2)cc1
14,24.2,COc1ccc(-c2cc3nccn3c(Nc3ncccc3C(N)=O)n2)cc1OC
15,< 1,COc1ccc(-c2ccc3nc(-c4cc(C)cc(C)c4)oc3c2)c(OC)c1OC
16,21.8,Cc1cccc(S(=O)(=O)Nc2cnccc2C(=O)Nc2nc(-c3ccccc3)cs2)c1
17,3.2,CCOC(=O)c1csc(NC(=O)c2ccncc2NS(=O)(=O)c2ccc(C)cc2)n1
18,< 1,COC(=N)c1nc2ccc3ncnc(Nc4ccc(F)cc4Br)c3c2s1
19,56.9,O=C(Nc1nc(-c2ccccc2)cs1)c1ccncc1NS(=O)(=O)c1ccc(N2CCCC2=O)cc1
20,< 1,c1cc(-c2cc(-c3ccncc3)c3cncn3c2)c2[nH]ccc2c1
21,< 1,CC(C)(C)c1ccc(SC2=NS(=O)(=O)c3ccccc32)cc1
22,> 48,CC(C(O)c1ccc(O)cc1)N1CCC(Cc2ccccc2)CC1 (stereo not drawn)
23,11.3,Oc1ccc(-c2nc(C3CC3)nc3c2CCN(CC2CCCCC2)CC3)cc1
24,4.58,COCCNC(=O)c1ccc(-c2ccc(N3CCCCC3)nc2)cc1

row,solubility kinetic [µg/mL],Structure (SMILES)
1,54.1,COc1ccc(S(=O)(=O)Nc2cnccc2C(=O)Nc2nc(-c3ccccc3)cs2)cc1
2,6.78,CCOc1ccc(CN2C(=O)c3ccccc3Sc3ccc(C(=O)NC4CCC(C)CC4)cc32)cc1 (stereo not drawn)
3,4.29,O=C(NC1CCCc2c1cnn2-c1ccc(F)cc1F)c1ccccc1 (stereo not drawn)
4,> 41,NCC(=O)Nc1ccc(Cl)cc1C(=O)c1ccc[nH]1
5,> 78,Cn1ccc2c(C(=O)NCCC(N)=O)nc(-c3cccc(CO)c3)cc21
6,1.77,O=C(Nc1cccc(F)c1)c1cc(-c2ccc[nH]2)n[nH]1
7,< 1,COc1ccc(NC(=O)C2=C(C)NC(Nc3nc4ccccc4o3)=NC2c2ccccc2Br)cc1 (stereo not drawn)
8,> 62,CNC(=O)c1ccc(-c2cnc3cnc(C(=O)N(C)c4ccc(Cl)cc4)cn23)cc1
9,37.3,Cc1nc([C@](C)(O)CO)sc1-c1cnc(N)c(O[C@H](C)c2cc(F)ccc2-n2nccn2)c1
10,< 1,COc1cccc(-c2nc3cc(NC(=O)c4ccc(C)c([N+](=O)[O-])c4)ccc3o2)c1
11,< 1,CC(=O)N1CCc2cc(-c3nc(NC(=O)Cc4ccc5c(c4)OCO5)sc3C)ccc21
12,< 1,Cc1ccc2oc(NC3=NC4(CCCC4)C4=C(CCCC4=O)N3)nc2c1
13,< 1,Cc1ccc(S(=O)(=O)Nc2ccccc2Nc2nc(-c3ccccc3)cs2)cc1
14,< 1,COc1ccc(C2C=C(c3ccc(Cl)cc3)Nc3nc(-c4ccc(Cl)cc4)nn32)cc1 (stereo not drawn)
15,< 1,Fc1ccccc1-c1nc(NCc2ccc(-c3cccnc3)cc2)c2ccccc2n1
16,< 1,COc1ccc2c(c1)CCc1c-2n[nH]c1C(=O)N1CCc2c(nc3cc(-c4ccccc4)[nH]n3c2=O)C1
17,< 1,Cc1ccc(O)c(-c2cc(-c3ccccc3C)[nH]n2)c1
18,5.86,Cc1ccc(-n2nc3c(=O)n(CCCC(=O)NCc4ccc(F)cc4)nc(C)c3c2C)cc1
19,22.8,O=C1Nc2ccccc2/C1=C\c1ccc(O)c(Cl)c1
20,< 1,O=C(Nc1ncc(Cc2ccccc2)s1)c1ccc(-c2cccc([N+](=O)[O-])c2)o1
21,> 51,CCOC(=O)C1CCN(C(=O)Nc2ccc3c(c2)nc(C)n3C)CC1
22,3.32,CCn1cc(C(=O)N2CCN(c3cccc(Cl)c3)CC2)c2cc(OC)c(OC)cc2c1=O
23,52.4,CCOc1ccc(CCNC(=O)c2cc3sccc3n2CCN2CCOCC2)cc1OCC
24,4.84,CNS(=O)(=O)c1cc(-c2nn3c(C)nnc3c3ccccc23)ccc1C

row,solubility kinetic [µg/mL],Structure (SMILES)
1,< 1,O=[S+]([O-])(Nc1ccc(-c2ccccc2)cc1)c1ccc(NCc2ccc(Cl)cc2O)cc1
2,< 1,CCCCC1CCC(C(=O)Nc2ccc(S(=O)(=O)Nc3nccs3)cc2)CC1 (stereo not drawn)
3,1.84,NC(=O)N1CCN(c2nc(-c3ccc(Br)cc3)cs2)CC1
4,< 1,O=C(Nc1cccc(C(F)(F)F)c1)c1ccccc1NC(=O)C1CCCCC1
5,> 74,O=C(NC1CC1)C1CCCN1C(=O)c1cccc(-c2ccccn2)c1 (stereo not drawn)
6,8.36,COc1cccc(CNc2ccc(S(=O)(=O)Nc3ccccn3)cc2)c1O
7,< 1,O=C1CCCC2=C1C(c1[nH]ncc1Cl)N=C(Nc1nc3ccccc3o1)N2 (stereo not drawn)
8,> 50,Clc1ccc(C2(c3ccc(-c4cn[nH]c4)cc3)CCNCC2)cc1
9,< 1,CC(C)c1ccccc1-c1nc(NCc2ccc(-c3cccnc3)cc2)c2ccccc2n1
10,52.4,CN(C)c1ccc2cc(C(=O)N[C@@H](CCCN=C(N)CCl)C(=O)NCc3ccccc3)ccc2c1
11,< 1,CCOc1ccc(C(C)CNC(=O)c2cc3sccc3n2Cc2ccccc2)cc1OCC (stereo not drawn)
12,> 72,Cc1c(Cl)cccc1-n1ncc(C(=O)Nc2ccc(Br)cc2F)c1C1CCNCC1
13,9.32,Nc1c(C(=O)N2CCCCC2)sc(=S)n1-c1ccccc1
14,22,Cc1noc(C)c1C(=O)N1CCC2(CC1)CCN(C(c1ccccc1)c1ccccc1)CC2
15,1.83,COc1cccc(CNc2ccc(S(=O)(=O)Nc3nc(C)c(C)s3)cc2)c1O
16,15.6,O=C1CN(C(=O)CCC(=O)N2CCc3c(nc4cc(-c5ccccc5)[nH]n4c3=O)C2)c2ccccc2N1
17,45.2,Cc1ccc(C(N)=O)cc1Nc1nccc(-c2cn(C(C)C)c3cnccc23)n1
18,51.1,COc1cccc(CNc2ccc(S(=O)(=O)Nc3cccc(N4CCNCC4)c3)cc2)c1O
19,< 1,Cc1ccccc1Nc1c(-c2ccccc2O)nc2sccn12
20,4.21,COc1ccc(C2c3c(ncn(CCN4CCOCC4)c3=N)Oc3ccc4ccccc4c32)cc1OC (stereo not drawn)
21,< 1,COc1ccc(CN(C2CCCCC2C)S(=O)(=O)c2ccc(S(=O)(=O)N(C)C)cc2)cc1OC (stereo not drawn)
22,< 1,CNc1oc(-c2ccc(-c3ccccc3)cc2)nc1C#N
23,< 1,CCN(CC)S(=O)(=O)c1ccc2oc(C(=O)Nc3ccc(Br)cc3F)c(C)c2c1
24,> 60,COc1ccc(C(=O)N2CCCC(c3nn(-c4ccc(OC)cc4)c(=O)[nH]3)C2)cc1 (stereo not drawn)

row,solubility kinetic [µg/mL],Structure (SMILES)
1,26.4,Cc1cccc(-n2cnc3cc(C(=O)N4CCCC(C)C4)ccc32)c1 (stereo not drawn)
2,> 42,CC(C)(C)n1cnc2cc(C(=O)N3CCCCC3)ccc21
3,22.2,CCCCN1CCC[C@H]1CNC(=O)c1cc(C#N)c2ccccc2c1OC
4,44,Cc1c(C)n(Cc2ccc(-c3ccccc3C(=O)O)cc2)c2ccc(C(=O)N[C@@H](C)c3ccc([N+](=O)[O-])cc3)cc12
5,< 1,CCOc1ccc(CCNC(=O)c2cc3sccc3n2Cc2ccccc2)cc1OCC
6,< 1,CNC(=O)c1cc(Oc2ccc(NC(=O)Nc3ccc(Cl)c(C(F)(F)F)c3)c(F)c2)ccn1
7,< 1,Cc1ccc(S(=O)(=O)Nc2ccc(C(=O)Nc3nc(-c4ccccc4)cs3)cc2Cl)cc1
8,< 1,COC(=O)C1=C(C)NC(C)=C(C(=O)O[C@@H]2CCCN(Cc3ccccc3)C2)[C@@H]1c1cccc([N+](=O)[O-])c1
9,> 34,CCCc1c(CC)c(=N)c2ccccc2n1C.I
10,3.21,COC(=O)[C@H](Cc1ccc(O[S+](=O)([O-])c2cccc3cnccc23)cc1)N[S+](=O)([O-])c1ccc2cnccc2c1
11,< 1,Clc1ccccc1Nc1nc(-c2ccncc2)nc2ccccc12
12,> 72,Cc1nc(Nc2n[nH]c3c2CN(C(=O)N[C@H](CN(C)C)c2ccccc2)C3(C)C)c2sccc2n1
13,< 1,O=C(Nc1ncc(Cc2ccc(C(F)(F)F)cc2)s1)c1cccc(-c2ccccc2)c1
14,52.4,Cn1ccc2c(C(=O)NCC3CCC(=O)N3)nc(-c3ccccc3C#N)cc21 (stereo not drawn)
15,> 73,Cc1nn(CC(=O)NCCCN2CCC(N3CCCCC3)CC2)c(=O)c2cc(-c3ccccc3)nn12
16,> 62,CCCCN(CC)CCNC(=O)c1cc2c(-c3ccc(Cl)cc3)nn(C)c2s1
17,> 59,C=CC(=O)N1CCCN(c2cc(NCCC(=O)O)nc(-c3ccccn3)n2)CC1
18,< 1,Fc1cc(Nc2nc(-c3ccncc3)nc3ccccc23)ccc1N1CCCC1
19,< 1,COC(=O)Nc1nc2ccc(Sc3ccccc3)cc2[nH]1
20,< 1,O=C(/C=C/c1cn(CC(O)CN2CCCCCC2)c2ccccc12)c1ccc(Br)cc1 (stereo not drawn)
21,< 1,CCc1ccc(C2Sc3ccccc3NC3=C2C(=O)c2ccccc23)cc1 (stereo not drawn)
22,< 1,Cn1cc2c3c(cccc31)CN(C(=O)c1ccc(F)c(Cl)c1)CC2

row,Structure (SMILES),solubility kinetic [µg/mL]
1,O=C(CCCN1CCC2(CC1)C(=O)N(Cc1cccc(F)c1)CN2c1ccccc1)c1ccc(F)cc1,4.23
2,CCOc1ccc(CCNC(=O)c2cc3cccnc3n2Cc2cccc(C)n2)cc1OCC,43.8
3,COC12C(COC(N)=O)C3=C(C(=O)C(C)=C(N)C3=O)N1CC1C2N1C (stereo not drawn),> 51
4,O=C(Nc1ccc(Cl)c(S(=O)(=O)N2CCOCC2)c1)c1ccccc1,< 1

# — PubChem BioAssay AID1645848
